# Source: patent US20050209278A1, “Piperidinyl- and piperazinyl-sulfonylmethyl hydroxamic acids and their use as protease inhibitors” (priority 2002, published 2005)
# Legend:
# MMP-1 = target: T1, MMP-1 (Homo sapiens, UniProt P03956); test: In vitro MMP inhibition, Ki determination (fluorogenic substrate II); format: biochemical; conditions: value outside parentheses; read-out: MMP-1 Ki
# T1 construct: made in house; host or cells: MMP-1-transfected HT-1080 cells (spent media)
# T1 sequence (P03956 100-469): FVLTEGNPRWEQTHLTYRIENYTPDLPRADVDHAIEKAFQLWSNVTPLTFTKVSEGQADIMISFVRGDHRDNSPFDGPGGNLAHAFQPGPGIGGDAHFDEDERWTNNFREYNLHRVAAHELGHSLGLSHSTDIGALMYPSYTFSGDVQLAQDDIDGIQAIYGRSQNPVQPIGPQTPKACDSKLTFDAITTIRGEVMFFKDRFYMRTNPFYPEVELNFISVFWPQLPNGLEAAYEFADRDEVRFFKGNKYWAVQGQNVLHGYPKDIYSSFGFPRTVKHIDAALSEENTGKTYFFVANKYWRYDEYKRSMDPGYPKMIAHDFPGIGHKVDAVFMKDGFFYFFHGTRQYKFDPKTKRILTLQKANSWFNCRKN
# MMP-2 = target: T2, MMP-2 (Homo sapiens, UniProt P08253); test: as above; format: biochemical; conditions: value outside parentheses; read-out: MMP-2 Ki
# T2 construct: made in house; host or cells: MMP-2-transfected p2AHT2 cells
# T2 sequence (P08253 110-660): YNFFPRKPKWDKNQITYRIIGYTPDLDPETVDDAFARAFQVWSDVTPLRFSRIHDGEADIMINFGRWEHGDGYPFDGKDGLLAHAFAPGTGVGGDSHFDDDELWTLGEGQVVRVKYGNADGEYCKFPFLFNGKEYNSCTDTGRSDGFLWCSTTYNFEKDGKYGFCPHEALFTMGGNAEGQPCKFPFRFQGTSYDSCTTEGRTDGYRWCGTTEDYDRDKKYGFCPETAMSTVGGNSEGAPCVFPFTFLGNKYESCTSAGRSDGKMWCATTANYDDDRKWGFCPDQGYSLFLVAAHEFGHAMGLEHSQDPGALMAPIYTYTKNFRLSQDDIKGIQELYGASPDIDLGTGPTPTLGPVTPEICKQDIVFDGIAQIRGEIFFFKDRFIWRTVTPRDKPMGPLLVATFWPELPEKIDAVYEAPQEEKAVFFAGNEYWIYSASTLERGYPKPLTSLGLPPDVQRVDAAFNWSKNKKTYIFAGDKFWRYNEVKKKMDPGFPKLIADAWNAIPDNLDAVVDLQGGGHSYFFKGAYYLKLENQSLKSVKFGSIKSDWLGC
SMILES,Ki (MMP-1) [nM],Ki (MMP-2) [nM]
CCCCOc1ccc(N2CCN(S(=O)(=O)C3(C(=O)NO)CCNCC3)CC2)cc1F [Example 286],> 10000,5.17
COCCN1CCC(C(=O)NO)(S(=O)(=O)N2CCN(c3ccc(Oc4ccccc4)cc3)CC2)CC1 [Example 287],> 10000,9.44
CCCCOc1ccc(N2CCN(S(=O)(=O)C3(C(=O)NO)CCN(C(=O)CN)CC3)CC2)cc1 [Example 292],> 10000,1.74
CCCCOc1ccc(N2CCN(S(=O)(=O)C3(C(=O)NO)CCN(Cc4cccnc4)CC3)CC2)cc1F [Example 293],> 10000,0.486
CCCCOc1ccc(N2CCN(S(=O)(=O)C3(C(=O)NO)CCN(c4ccc(C)cc4)CC3)CC2)cc1 [Example 295],> 10000,8.76
CCCCOc1ccc(N2CCN(S(=O)(=O)C3(C(=O)NO)CCN(c4ccc(C)cc4)CC3)CC2)cc1F [Example 296],> 10000,6.73
COCCOc1ccc(N2CCN(S(=O)(=O)C3(C(=O)NO)CCN(C4CC4)CC3)CC2)cc1F [Example 297],> 10000,1.36
CCCCOc1ccc(N2CCN(S(=O)(=O)C3(C(=O)NO)CCN(CC4CC4)CC3)CC2)cc1 [Example 298],> 10000,3.27
Cc1cc(N2CCN(S(=O)(=O)C3(C(=O)NO)CCOCC3)CC2)ccc1OC(C)C [Example 299],> 10000,22.5
CS(=O)(=O)c1ccc(N2CCN(S(=O)(=O)C3(C(=O)NO)CCOCC3)CC2)cc1 [Example 300],> 10000,67.1
CCCCOc1ccc(N2CCN(S(=O)(=O)C3(C(=O)NO)CCN(C4CC4)CC3)CC2)cc1 [Example 301],> 10000,0.88
C#CCN1CCC(C(=O)NO)(S(=O)(=O)N2CCN(c3ccc(OCCCC)cc3)CC2)CC1 [Example 303],> 10000,1.68
COCCN1CCC(C(=O)NO)(S(=O)(=O)N2CCC(c3ccc(CCC(F)(F)F)cc3)CC2)CC1 [Example 309],> 10000,0.328
COCCN1CCC(C(=O)NO)(S(=O)(=O)N2CCC(c3ccc(CCCC(F)(F)F)cc3)CC2)CC1 [Example 310],> 10000,0.919
COCCN1CCC(C(=O)NO)(S(=O)(=O)N2CCC(c3ncc(CC(C)C)s3)CC2)CC1 [Example 311],> 10000,103
COCCN1CCC(C(=O)NO)(S(=O)(=O)N2CCC(c3ccc(CCC(F)(F)C(F)(F)F)cc3)CC2)CC1 [Example 312],> 10000,0.52

# Other lines, results leading:
Ki (MMP-1) [nM],Ki (MMP-2) [nM],SMILES
> 10000,2.76,CCCCOc1ccc(N2CCN(S(=O)(=O)C3(C(=O)NO)CCN(C)CC3)CC2)cc1 [Example 280]
> 10000,0.769,CCCCOc1ccc(N2CCN(S(=O)(=O)C3(C(=O)NO)CCN(c4ccc(Cl)nn4)CC3)CC2)cc1 [Example 281]
> 10000,0.5,CCCCOc1ccc(N2CCN(S(=O)(=O)C3(C(=O)NO)CCN(C(C)=O)CC3)CC2)cc1 [Example 282]
9790,0.37,CCCCOc1ccc(N2CCN(S(=O)(=O)C3(C(=O)NO)CCN(c4ccc(O)nn4)CC3)CC2)cc1 [Example 283]
> 10000,0.81,CCCCOc1ccc(N2CCN(S(=O)(=O)C3(C(=O)NO)CCN(CCOC)CC3)CC2)c(F)c1 [Example 284]
> 10000,1.55,CCCCOc1ccc(N2CCN(S(=O)(=O)C3(C(=O)NO)CCN(Cc4ccccc4)CC3)CC2)cc1F [Example 285]
6700,0.407,CCCCCc1ccc(C2CCN(S(=O)(=O)C3(C(=O)NO)CCOCC3)CC2)nc1 [Example 305]
602,0.444,O=C(NO)C1(S(=O)(=O)N2CCC(c3ccc(Br)cn3)CC2)CCOCC1 [Example 306]
6810,0.505,CCCCc1ccc(C2CCN(S(=O)(=O)C3(C(=O)NO)CCOCC3)CC2)nc1 [Example 307]
6780,6.36,O=C(NO)C1(S(=O)(=O)N2CCC(c3ccc(-c4ccc(F)cc4F)cn3)CC2)CCOCC1 [Example 308]
